Experimental findings from US20260137678A1, “METHODS FOR TREATING OR PREVENTING NEUROENDOCRINE TUMOR FORMATION USING XPO1 INHIBITORS” (priority 2022, published 2026) are described below.

One experiment deals with SOX2. As to the kind of experiment: SOX2 mRNA and protein expression in selinexor-treated isogenic cell lines. It is filed as cell-based. The settings on record: H1563, 22PC and LnCap cell lines, selinexor 5 nM for 4 days. From the text:
FIGS. 6A-6J: Exportin 1 inhibition downregulates SOX2 expression, hindering the acquisition of NE features. Pathway enrichment analysis on DEGs from enzalutamide versus control (FIG. 6A) and combo versus enzalutamide (FIG. 6B) conditions in the transcriptomic data from TP53/RB1 DKO 22PC xenografts treated in vivo and collected at control arm experimental endpoint (day 31). Categorized pathways of interest, previously involved in NE transformation^5,6, are shown. FIG. 6C: SOX2 mRNA expression in tumors divided by treatment condition. mRNA expression values are shown as TPM (n=4, 3, 3 and 3 tumors for the control, enzalutamide-, selinexor- and combo-treated tumors). […] Mice weights and tumor volumes were measured twice a week and mice were sacrificed when tumors reached humane endpoint (volume=1000 mm^3). […] For western blots and mRNA plots, representative images are shown. p-values were calculated using the Student's t-test (unpaired, heterogeneous variances, two-tailed). p-value legend: *<0.05, **<0.01, ***<0.001. […]
Protein extraction and western blot were performed as previously described^24 from frozen cell pellets or flash-frozen tumor samples using RIPA lysis buffer with 1×HALT protease inhibitor cocktail (Thermo, #78446). […] Quantifications were performed with the Image Studio software (Version 3.1, Li-Cor). […]

For experiment [1], the system named is DKO 22PC and DKO LnCap/AR cells. As to the kind of experiment: NE marker, AR and SOX2 expression in DKO cells treated in vitro. In kind it is cell-based. As to conditions: enzalutamide 150 nM, selinexor 5 nM or combination, 4 days; absence of exogenous SOX2.
A further experiment has as its system Lx1042 (T-SCLC) PDX. As to the kind of experiment: In vivo treatment of PDX, tumor growth and tumor western blots. Set-up: species or system mice. As to conditions: tumors from in vivo treatment; selinexor added to cisplatin.

On to `O=C(/C=C\n1cnc(-c2cc(C(F)(F)F)cc(C(F)(F)F)c2)n1)NNc1cnccn1` [selinexor], for which the “induction of SOX2 mRNA and protein by TP53/RB1 inactivation” value with SOX2 was “prevented”. Besides, the “NE marker and AR expression” value in experiment [1] is “prevent enzalutamide-induced NE marker expression and AR suppression”. Moreover, the “activation of the AKT pathway in tumors (western blot)” value in the experiment on Lx1042 (T-SCLC) PDX is listed as “suppressed”.
